Results on 2 compounds are retold here after patent publication US12616759B2, “Uses of labeled HSP90 inhibitors” (Sloan-Kettering Institute for Cancer Research, priority 2011, dated 2026).

Structures are written as SMILES.

Data set [1] concerns oncogenic HSP90. Description: PU-H71-FITC2 binding to primary leukemia blasts relative to normal lymphocytes, flow cytometry. Format: cell-based, human. Conditions: blast crisis CML cells. Here is the method:
Cell viability was analyzed by flow cytometry (BD Biosciences). […] Cells were washed and then analyzed by flow cytometry. Normal mouse IgG2a-PE was used as isotype control.
Analysis is performed using FlowJo software.

Data set [2] deals with oncogenic HSP90. Put plainly: PU-FITC binding to EpCAM+ circulating tumor cells in PBMCs. Format: cell-based, human. The conditions noted are these: CTCs, patient with HER2+ metastatic breast cancer. Here is the method:
FIGS. 20A and 20B. PU-H71-FITC2 accumulation in EpCAM+ Circulating Tumor Cells: PBMC's isolated from whole blood were pre-treated with PU-FITC or controls (PU-FITC9, DMSO, 1 μM/2×10^6 cells/ml, 4 hrs). Cells were then stained with CD45, CD14 and EpCAM antibodies. FIG. 20A Cells are gated to exclude dead cells. Viable cells are then gated to determine EpCAM+vs CD45+ cells. Monocytes are excluded from the analysis by gating the CD45+ cells further as FSC vs. CD14. FIG. 20B Histogram plots showing the PU-FITC Median florescence intensity (MFI) of CD45+CD14− cells (blue) and EpCAM+ cells (Red). The drug accumulation in EpCAM+ cells is calculated as the ratio of MFI EpCAM+/MFI CD45+CD14− (circulating tumor cells/leukocytes) after subtracting the values of the DMSO and PU-FITC9 controls (used to control for non-specific and background binding).
Measure PU-FITC binding to EpCAM+ circulating tumor cells in PBMC's: All experimental blood sampling procedures were performed under the Institutional Review Board-approved protocols at Memorial Sloan Kettering Cancer Center. […] PBMC's are isolated on ficoll gradients, cells are counted and viability determined by trypan blue dye exclusion assay. PBMC's are spun down and re-suspended to 2×10^6 cells/ml. […] Values are calculated as a ratio of the MFI of Tumor (EpCAM+CD45−CD14−): MFI of EpCAM-CD45+CD14− cells. […]

Data set [3] has as its system MV4-11 and MOLM-13 cells. Put plainly: fluorescent PU-H71 derivatives in AML cell lines: flow cytometry, viability.
Data set [4] has as its system oncogenic HSP90. Description: PU-H71-FITC2 binding to pancreatic and breast cancer cell lines relative to HL-60 versus viability.
For data set [5], the system named is HSP70. Description: HSP70 induction in hippocampus of 3×Tg AD mice. Format: in vivo. Conditions: i.p., 24 h. The procedure:
FIGS. 43A, 43B, and 43C. 8-10 mo 3×Tg mice were administered 75 mg/kg (FIG. 43A) or the indicated dose of the HSP90 inhibitor PU-HZ151 (FIG. 43B) and the PD marker, HSP70, was measured in hippocampus, an afflicted brain region in this model of AD, at 24 h post-administration. HSP70 is induced when HSP90 is inhibited and its induction is an indicator that therapeutic levels of the HSP90 inhibitor were delivered to the brain region of interest. FIG. 43C: Levels of the HSP90 inhibitor in the indicated brain regions and plasma were determined by LC-MS/MS after the administration of 50 mg/kg PU-HZ151. Hsp90 inhibitor levels at different times after single ip injection are shown in micromolar units. Brain exposure was also measured as the area under the curve (AUC).
Pharmacodynamic analyses. For protein analysis, selected brain region (hippocampus) was homogenized in SDS lysis buffer (50 mM Tris pH 7.4, 2% SDS) and subjected to Western blot analysis. Levels of proteins were be analyzed by immunoblotting with anti-Hsp70 and Hsp90 antibodies.

Data set [6] can be described thus: in vivo. Conditions: 3×Tg AD, mouse.

As to `CC(C)N(CCCn1c(Sc2cc3c(cc2I)OCO3)nc2c(N)ncnc21)C(=S)Nc1ccc(-c2c3ccc(=O)cc-3oc3cc(O)ccc23)c(C(=O)O)c1` [PU-H71-FITC2], in data set [1], the “binding relative to normal lymphocytes” value is given as “over 4 fold”. Also, the “fold more bound by tumor cells than leukocytes (CD45+CD14− cells)” value in data set [2] is on record as “around 84 fold”. Besides, in data set [3] (1 μM), the “permeation of live cells and target binding” value was “permeate live cells and bind to the target”. Further, the “effect on viability of leukemia cells” value in data set [3] (MOLM-13, 1 μM, 24 h) is “reduce the viability of leukemia cells”. Also, the “binding to HL-60 leukemia cells” value in data set [4] is “low to no binding”.
Consider `CC(C)(C)CNCCn1c(Sc2cc3c(cc2I)OCO3)nc2c(N)ncnc21` [PU-HZ151], for which, in data set [5], the “lowest administered dose with significant induction of HSP70” value amounted to 10 mg/kg. The Kp in data set [6] stood at 2.5.
